One test deals with DMS114. Kind of test: GI50 screening of FGFR1-amplified lung cancer cell lines against FGFR inhibitors. Format: cell-based. The following applies: Homo sapiens, DMS-114; sensitive cell line DMS114; read-out: half-growth-inhibitory concentration, or GI50. On the procedure:
(§1) Bars are indicated by number (1) (GI50>1 μM) or number (2) (GI50>1 μM) b) Average copy number of 6 cell lines not sensitive upon FGFR inhibition (marked by number (1)) and 2 cell lines which are sensitive upon FGFR inhibition (marked by number (2)). Copy number was extracted from genomic sequencing or whole exome sequencing data and plotted to chromosome 8 (hg19) with ROBOCOP. Location of NSD3 and FGFR1 with grey-backed surface c) Average tumor growth reduction of 8 patient derived xenograft tumor models treated with BG.J398 vs. vehicle. All models were confirmed to be FGFR1 amplified by FGFR1 FISH. Each bar represents an experiment of at least six mice and 12 tumors. Bars are marked by number (1) (tumor reduction of <30%) or by number (2) (tumor reduction of >30%). d) Average copy number of 5 patient derived xenograft tumor models not benefitting from FGFR inhibition (marked by number (1)) and 3 patient derived xenograft tumor (PDX) models which benefit from FGFR inhibition (marked by number (2)). […]
(§2) To gain a deeper understanding of 8p11-8p12-amplified lung cancer tumors and to link specific patterns of the 8p12-8p11 amplicon structure with FGFR1 dependency, the inventors analyzed an independent cohort of 26 8p-amplified tumor specimens with known sensitivity to FGFR inhibition. […]

The subject of another test is H1581. The test is described as above. The following applies: Homo sapiens, NCI-H1581; sensitive cell line H1581; read-out: half-growth-inhibitory concentration, or GI50. Format: cell-based. On the procedure: as §1, §2
Test [1] concerns FGFR1-amplified squamous cell lung cancer. Kind of test: Patients with FGFR1-amplified squamous cell lung cancer treated with an FGFR inhibitor (phase I clinical trial / off-label use). Format: in vivo, human. To be noted: 8 patients treated with BG.J398, phase I clinical trial. On the procedure:
Bars are indicated by number (1) (GI50>1 μM) or number (2) (GI50>1 μM) b) Average copy number of 6 cell lines not sensitive upon FGFR inhibition (marked by number (1)) and 2 cell lines which are sensitive upon FGFR inhibition (marked by number (2)). Copy number was extracted from genomic sequencing or whole exome sequencing data and plotted to chromosome 8 (hg19) with ROBOCOP. Location of NSD3 and FGFR1 with grey-backed surface c) Average tumor growth reduction of 8 patient derived xenograft tumor models treated with BG.J398 vs. vehicle. All models were confirmed to be FGFR1 amplified by FGFR1 FISH. Each bar represents an experiment of at least six mice and 12 tumors. Bars are marked by number (1) (tumor reduction of <30%) or by number (2) (tumor reduction of >30%). d) Average copy number of 5 patient derived xenograft tumor models not benefitting from FGFR inhibition (marked by number (1)) and 3 patient derived xenograft tumor (PDX) models which benefit from FGFR inhibition (marked by number (2)). Copy number was extracted from genomic sequencing data and plotted to chromosome 8 (hg19) with ROBOCOP. e) Tumor volume change of patients with squamous cell lung cancer harboring FGFR1 amplification and treated with BG.J398. […]
Finally, the inventors analyzed biopsy specimens obtained from 10 patients with FGFR1-amplified squamous cell lung cancer. […]

For test [2], the system named is FGFR1 amplified patient derived xenograft (PDX) models of squamous cell lung cancer. Put plainly: Patient derived xenograft tumor models treated with BG.J398 vs. vehicle. The test is classed as in vivo, mice. The following applies: 20 mg/kg daily oral. The protocol:
Bars are indicated by number (1) (GI50>1 μM) or number (2) (GI50>1 μM) b) Average copy number of 6 cell lines not sensitive upon FGFR inhibition (marked by number (1)) and 2 cell lines which are sensitive upon FGFR inhibition (marked by number (2)). Copy number was extracted from genomic sequencing or whole exome sequencing data and plotted to chromosome 8 (hg19) with ROBOCOP. Location of NSD3 and FGFR1 with grey-backed surface c) Average tumor growth reduction of 8 patient derived xenograft tumor models treated with BG.J398 vs. vehicle. All models were confirmed to be FGFR1 amplified by FGFR1 FISH. Each bar represents an experiment of at least six mice and 12 tumors. Bars are marked by number (1) (tumor reduction of <30%) or by number (2) (tumor reduction of >30%). d) Average copy number of 5 patient derived xenograft tumor models not benefitting from FGFR inhibition (marked by number (1)) and 3 patient derived xenograft tumor (PDX) models which benefit from FGFR inhibition (marked by number (2)). Copy number was extracted from genomic sequencing data and plotted to chromosome 8 (hg19) with ROBOCOP. e) Tumor volume change of patients with squamous cell lung cancer harboring FGFR1 amplification and treated with BG.J398. Tumor volume change was measured by RECIST criteria. […] TUM003 and TUM007 died during treatment and no sign of response. * labeled sample was an of label FGFR inhibitor treated patient where no RECIST data were available. f) Average copy number of 5 patients with progressive disease (marked by number (2)) and 4 patients with durable, partial response upon FGFR inhibition (marked by number (1), one patient was treated with an off label used FGFR inhibitor (GW786034 HCl). […]
Furthermore, the inventors analysed patient-derived 8p12-8p11-amplified squamous cell lung cancer xenotransplant models. In total, the inventors performed FGFR1 fluorescence in situ hybridization (FISH) on 35 patient derived xenograft (PDX) models from EpoBerlin, 39 PDX models from Crown Bioscience Inc., 3 samples of Moro Massimo as previously described. […]

In test [3] the test system is FGFR1-amplified lung cancer cell lines. Put plainly: GI50 screening of FGFR1-amplified lung cancer cell lines against FGFR inhibitors (6 resistant lines). Format: cell-based. The following applies: 6 of 8 FGFR1-amplified lung cancer cell lines, read-out: half-growth-inhibitory concentration, or GI50. On the procedure: as §1, §2
Test [4] has as its system Ba/F3 cells expressing ΔEC-FGFR1. Put plainly: Screening of Ba/F3 cells expressing ΔEC-FGFR1 with FGFR inhibitors (cellular ATP content after 96 hours). The test is classed as cell-based, murine. To be noted: IL3 depleted conditions. An excerpt:
Located genes in this region (middle, bottom; positive strand, negative strand), break coverage (top), location of tail-to-tail breaks (arrows and black dashed lines) are shown. Normal exon structure of NSD3 and FGFR1 with the genomic breaks are indicated by an asterisk independent of the chromosomal position shown above (bottom). b) Resulting rearrangement of the t-to-t break (dashed lines, top) and spanning reads from whole transcriptome sequencing data (bottom) is shown. c) PCR from corresponding cDNA with two different primer pairs, spanning the t-to-t break and FGFR1 (left) and matched normal cDNA (right) d) Hybrid-capture-based genomic sequencing (468×depth) copy number plot zoomed to the location of FGFR1 (middle). Tumor sample is from a patient with unknown response upon FGFR inhibition. Normal exon structure of FGFR1 (bottom), location of a tail-to-tail break (arrows), and break coverage (top) is shown. e) The resulting rearrangement of the t-to-t break is shown (dashed lines). f) Break spanning reads detected by ARCHER sequencing technique are indicated. g) Immunoblotting of transformed Baf3 cells (Baf3 FGFR1 AEC and Baf3 EML4-ALK as control) vs. non-transformed Baf3 cells transduced with empty Vector (Baf3 e.V.), FGFR1 alpha (Baf3 FGFR1aplpa), and FGFR1 beta (Baf3 FGFR1beta). […]

As for `CCN1CCN(c2ccc(Nc3cc(N(C)C(=O)Nc4c(Cl)c(OC)cc(OC)c4Cl)ncn3)cc2)CC1` [BG.J398], the GI50 with DMS114 was below 1000 nM; in the test with H1581, below 1000 nM; in test [3] it was above 1000 nM. In test [1], the “patients with durable, partial response (tumor volume change by RECIST)” value came to 3 patients. In addition, in test [1], the “patients with progressive disease (tumor volume change by RECIST)” value was found to be 5 patients. Moreover, the “Average tumor growth reduction vs. vehicle” value in test [2] (3 PDX models which benefit, bars (2)) is above 30%; in test [2] (5 PDX models not benefitting, bars (1)) it was below 30%. The “PDX models sensitive to FGFR inhibition” value in test [2] (8 FGFR1 amplified PDX models) is “Three of the 8 patient derived xenotransplant (PDX) models were sensitive”. The “sensitivity to FGFR inhibition” value in test [4] is recorded as “highly sensitive”.
Consider AZD4547, for which, in test [4], the “sensitivity to FGFR inhibition” value is given as “highly sensitive”.

(Values after patent US20240327928A1, “METHOD FOR IDENTIFYING RESPONSIVENESS TO FIBROBLAST GROWTH FACTOR RECEPTOR 1 INHIBITOR THERAPY” (UNIVERSITÄT ZU KÖLN, priority 2021, published 2024).)
